This test deals with AMPK. Kind of test: AMPK activation assay (enzyme-linked immunosorbent assay). Format: cell-based. Put shortly: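 Compounds were tested for their capacity to activate the kinase using standard, commercially available kit reagents and procedures.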
Compound `COc1ccc(C(=O)C2CCN(C(=O)c3cnc(C(=O)NC4CCN(Cc5ccc(C#N)cc5)CC4)cn3)CC2)cc1` [Compound 211, N-(1-(4-cyanobenzyl)piperidin-4-yl)-5-(4-(4-methoxybenzoyl)piperidine-1-carbonyl)pyrazine-2-carboxamide] displayed a concentration for a half-maximal effect (EC50) below 500 nM.

In turn, `COc1ccc(N2CCC(NC(=O)c3ccc(C(=O)N4CCC(Oc5ccc(C#N)cc5)CC4)nc3)CC2)cc1` [Compound 423, 6-(4-(4-cyanophenoxy)piperidine-1-carbonyl)-N-(1-(4-methoxyphenyl)piperidin-4-yl)nicotinamide] gave a concentration for a half-maximal effect (EC50) below 500 nM.

Turning to `CN1CCN(c2ccc(C(=O)C3CCN(C(=O)c4ccc(C(=O)NC5CCN(Cc6ccc(C#N)cc6)CC5)nc4)CC3)cc2)CC1` [Compound 380, N-(1-(4-cyanobenzyl)piperidin-4-yl)-5-(4-(4-(4-methylpiperazin-1-yl)benzoyl)piperidine-1-carbonyl)picolinamide], the EC50 was below 500 nM.

`CS(=O)(=O)c1ccc(C(=O)C2CCN(C(=O)c3ccc(C(=O)NC4CCN(Cc5ccc(F)cc5)CC4)nc3)CC2)cc1` [Compound 225, N-(1-(4-fluorobenzyl)piperidin-4-yl)-5-(4-(4-(methylsulfonyl)benzoyl)piperidine-1-carbonyl)picolinamide] registered a concentration for a half-maximal effect (EC50) below 500 nM.

For the compound `N#Cc1ccc(CN2CCC(NC(=O)c3ccc(Nc4ccc(Cc5ccccc5)cc4)cn3)CC2)cc1` [Compound 108, 5-(4-benzylphenylamino)-N-(1-(4-cyanobenzyl)piperidin-4-yl)picolinamide], the EC50 fell in the range of 500 to 1000 nM.

In turn, `N#Cc1ccc(CN2CCc3ccc(NC(=O)c4ccc(C(=O)N5CCN(Cc6ccc(F)cc6)CC5)cn4)cc3C2)cc1` [Compound 132, N-(2-(4-cyanobenzyl)-1,2,3,4-tetrahydroisoquinolin-7-yl)-5-(4-(4-fluorobenzyl)piperazine-1-carbonyl)picolinamide] displayed an EC50 below 500 nM.

For the compound `CC(C)(C)OC(=O)NCCCc1cc(C(=O)N2CCN(Cc3ccc(F)cc3)CC2)cnc1C(=O)NC1CCN(Cc2ccc(C#N)cc2)CC1` [Compound 290, tert-butyl 3-(2-(1-(4-cyanobenzyl)piperidin-4-ylcarbamoyl)-5-(4-(4-fluorobenzyl)piperazine-1-carbonyl)pyridin-3-yl)propylcarbamate], the EC50 was below 500 nM.

Turning to `CC(=O)c1ccc(Oc2ccc(NC(=O)c3ccc(C(=O)N4CCC(Oc5ccc(S(=O)(=O)C6CC6)cc5)CC4)nc3)cn2)cc1` [Compound 486, N-(6-(4-acetylphenoxy)pyridin-3-yl)-6-(4-(4-(cyclopropylsulfonyl)phenoxy)piperidine-1-carbonyl)nicotinamide], the EC50 was below 500 nM.

Take `N#Cc1ccc(CN2CCC(NC(=O)c3ccc(C(=O)N4CCC(Oc5ccc(S(=O)(=O)C(F)(F)F)cc5)CC4)cn3)CC2)cc1` [Compound 415, N-(1-(4-cyanobenzyl)piperidin-4-yl)-5-(4-(4-(trifluoromethylsulfonyl)phenoxy)piperidine-1-carbonyl)picolinamide]: the concentration for a half-maximal effect (EC50) was below 500 nM.

`N#Cc1ccc(CN2CCC(NC(=O)c3ccc(C(=O)N4CCC(C(=O)c5ccc(F)cc5F)CC4)nc3)CC2)cc1` [Compound 346, N-(1-(4-cyanobenzyl)piperidin-4-yl)-6-(4-(2,4-difluorobenzoyl)piperidine-1-carbonyl)nicotinamide] displayed an EC50 below 500 nM.

Compound `N#Cc1ccc(CN2CCC(NC(=O)c3ccc(C(=O)N4CC[C@@H](Oc5ccc(F)cc5)C4)cn3)CC2)cc1` [Compound 278, (R)-N-(1-(4-cyanobenzyl)piperidin-4-yl)-5-(3-(4-fluorophenoxy)pyrrolidine-1-carbonyl)picolinamide] showed an EC50 below 500 nM.

The compound `CS(=O)(=O)c1ccc(OC2CCN(C(=O)c3ccc(C(=O)NC4CCN(Cc5cc(F)cc(F)c5)CC4)nc3)CC2)cc1` [Compound 203, N-(1-(3,5-difluorobenzyl)piperidin-4-yl)-5-(4-(4-(methylsulfonyl)phenoxy)piperidine-1-carbonyl)picolinamide] yielded a concentration for a half-maximal effect (EC50) below 500 nM.

`COc1ccc(C(=O)C2CCN(C(=O)c3ccc(C(=O)NC4CCNCC4)cn3)CC2)cc1` [Compound 445, 6-(4-(4-methoxybenzoyl)piperidine-1-carbonyl)-N-(piperidin-4-yl)nicotinamide] registered an EC50 above 10000 nM.

Take `N#Cc1ccc(OC2CCN(C(=O)c3ccc(C(=O)NC4CCN(Cc5ccc(N6CCCC6)cc5)CC4)cn3)CC2)cc1` [Compound 336, 6-(4-(4-cyanophenoxy)piperidine-1-carbonyl)-N-(1-(4-(pyrrolidin-1-yl)benzyl)piperidin-4-yl)nicotinamide]: the concentration for a half-maximal effect (EC50) was below 500 nM.

Turning to `N#Cc1ccc(CN2CCC(NC(=O)c3ccc(N4CCC(Oc5ccc(C(F)(F)F)cc5)CC4)nn3)CC2)cc1` [Compound 361, N-(1-(4-cyanobenzyl)piperidin-4-yl)-6-(4-(4-(trifluoromethyl)phenoxy)piperidin-1-yl)pyridazine-3-carboxamide], the EC50 was below 500 nM.

`N#Cc1ccc(CN2CCC(NC(=O)c3ccc(C(=O)N4CCC(Oc5ccc(S(=O)(=O)C6CC6)cc5)CC4)nc3)CC2)cc1` [Compound 246, N-(1-(4-cyanobenzyl)piperidin-4-yl)-6-(4-(4-(cyclopropylsulfonyl)phenoxy)piperidine-1-carbonyl)nicotinamide] showed a 50% effective concentration (EC50) below 500 nM.

The compound `COc1cccc(CN2CCC(NC(=O)c3ccc(C(=O)N4CCC(S(=O)(=O)c5ccc(F)cc5)CC4)nc3)CC2)c1` [Compound 475, 6-(4-(4-fluorophenylsulfonyl)piperidine-1-carbonyl)-N-(1-(3-methoxybenzyl)piperidin-4-yl)nicotinamide] yielded an EC50 of 1000 to 5000 nM.

For `N#Cc1ccc(CN2CCC(NC(=O)c3ccc(-c4cn(Cc5ccccc5)nn4)cn3)CC2)cc1` [Compound 121, 5-(1-benzyl-1H-1,2,3-triazol-4-yl)-N-(1-(4-cyanobenzyl)piperidin-4-yl)picolinamide], the half-maximal effective concentration (EC50) was 1000 to 5000 nM.

Consider `N#Cc1ccc(OC2CCN(C(=O)c3ccc(C(=O)NC4CCN(Cc5cocn5)CC4)cn3)CC2)cc1` [Compound 355, 6-(4-(4-cyanophenoxy)piperidine-1-carbonyl)-N-(1-(oxazol-4-ylmethyl)piperidin-4-yl)nicotinamide], for which the 50% effective concentration (EC50) is above 10000 nM.

As for `CC(=O)c1ccc(Oc2ccc(NC(=O)c3ccc(C(=O)N4CCN(Cc5ccc(F)cc5)CC4)nc3)cn2)cc1` [Compound 477, N-(6-(4-acetylphenoxy)pyridin-3-yl)-6-(4-(4-fluorobenzyl)piperazine-1-carbonyl)nicotinamide], the EC50 is below 500 nM.

With `N#Cc1ccc(CN2CCC(NC(=O)c3ccc(C(=O)N4CCC(Oc5ccc(NC(=O)C6CC6)cc5)CC4)nc3)CC2)cc1` [Compound 409, N-(1-(4-cyanobenzyl)piperidin-4-yl)-6-(4-(4-(cyclopropanecarboxamido)phenoxy)piperidine-1-carbonyl)nicotinamide], the EC50 was below 500 nM.

`N#Cc1ccc(CN2CCC(NC(=O)c3ccc(C(=O)N4CCC(C(=O)c5ccc(F)cc5F)CC4)cn3)CC2)cc1` [Compound 271, N-(1-(4-cyanobenzyl)piperidin-4-yl)-5-(4-(2,4-difluorobenzoyl)piperidine-1-carbonyl)picolinamide] came in with a 50% effective concentration (EC50) below 500 nM.

On to `N#Cc1ccc(CN2CCC(NC(=O)c3ccc(Nc4ccc(-c5ccccc5)cc4)cn3)CC2)cc1` [Compound 109, 5-(biphenyl-4-ylamino)-N-(1-(4-cyanobenzyl)piperidin-4-yl)picolinamide], for which the concentration for a half-maximal effect (EC50) is 5000 to 10000 nM.

In the case of `O=C(c1ccc(C(=O)N2CCN(CCc3ccccc3)CC2)nc1)N1CCN(c2ccccc2)CC1` [Compound 90, (4-phenethylpiperazin-1-yl)(5-(4-phenylpiperazine-1-carbonyl)pyridin-2-yl)methanone], the EC50 is above 10000 nM.

With `CS(=O)(=O)c1ccc(OC2CCN(C(=O)c3ccc(C(=O)NC4CCN(Cc5ccc(C#N)cc5)CC4)nc3)CC2)cc1` [Compound 227, N-(1-(4-cyanobenzyl)piperidin-4-yl)-5-(4-(4-(methylsulfonyl)phenoxy)piperidine-1-carbonyl)picolinamide], the EC50 was below 500 nM.

The compound `COc1ccc(CN2CCC(NC(=O)c3ccc(C(=O)N4CCC(S(=O)(=O)c5ccc(F)cc5)CC4)nc3)CC2)cc1` [Compound 474, 6-(4-(4-fluorophenylsulfonyl)piperidine-1-carbonyl)-N-(1-(4-methoxybenzyl)piperidin-4-yl)nicotinamide] had an EC50 of 1000 to 5000 nM.

In turn, `COc1ccc(CN2CCC(N(C)C(=O)c3ccc(C(=O)N4CCC(C(=O)c5ccc(OC)cc5)CC4)nc3)CC2)cc1` [Compound 484, 6-(4-(4-methoxybenzoyl)piperidine-1-carbonyl)-N-(1-(4-methoxybenzyl)piperidin-4-yl)-N-methylnicotinamide] yielded an EC50 below 500 nM.

With `COc1ccc(CN2CCC(NC(=O)c3ccc(C(=O)N4CCC(C(=O)c5ccc(S(C)(=O)=O)cc5)CC4)cn3)CC2)cc1` [Compound 234, N-(1-(4-methoxybenzyl)piperidin-4-yl)-5-(4-(4-(methylsulfonyl)benzoyl)piperidine-1-carbonyl)picolinamide], the EC50 was below 500 nM.

`COc1ccc(CN2CCC(NC(=O)c3ccc(C(=O)N4CCC(Oc5ccc(F)cc5F)CC4)nc3)CC2)cc1` [Compound 344, 6-(4-(2,4-difluorophenoxy)piperidine-1-carbonyl)-N-(1-(4-methoxybenzyl)piperidin-4-yl)nicotinamide] yielded an EC50 below 500 nM.

The compound `N#Cc1ccc(CN2CCC(NC(=O)c3ccc(C(=O)N4CCC(c5ccc(Cl)cc5)CC4)cn3)CC2)cc1` [Compound 134, 5-(4-(4-chlorophenyl)piperidine-1-carbonyl)-N-(1-(4-cyanobenzyl)piperidin-4-yl)picolinamide] showed an EC50 below 500 nM.

Regarding `N#Cc1ccc(CN2CCC(NC(=O)c3ccc(C(=O)N4CCC(Oc5ccc(F)cc5F)CC4)cn3)CC2)cc1` [Compound 282, N-(1-(4-cyanobenzyl)piperidin-4-yl)-5-(4-(2,4-difluorophenoxy)piperidine-1-carbonyl)picolinamide], the EC50 was below 500 nM.

In turn, `N#Cc1ccc(CN2CCC(NC(=O)c3ccc(C(=O)N4CCN(C(=O)c5ccc(F)cc5)CC4)cn3)CC2)cc1` [Compound 76, N-(1-(4-cyanobenzyl)piperidin-4-yl)-5-(4-(4-fluorobenzoyl)piperazine-1-carbonyl)picolinamide] showed a concentration giving a half-maximal response (EC50) below 500 nM.

Values taken from patent publication US20150087673A1, “METHODS FOR USING AND BIOMARKERS FOR AMPK-ACTIVATING COMPOUNDS” (RIGEL PHARMACEUTICALS, INC., priority 2013, published 2015).
